These results are taken from patent publication US7884247B2, “Salt of dimethylaminomethyl-phenyl-cyclohexane and crystalline forms thereof” (Gruenenthal GmbH, priority 2005, dated 2011).

A short description of data set [1]: Damp storage and drying of maleate and hydrochloride (XRD, DSC, dry weight, Karl-Fischer water content). In kind it is physicochemical. The settings on record: for Change in crystalline form by X-ray diffraction pattern: after damp storage (25° C., 75% and 95% R.H., 7 days) and drying (50° C., vacuum, 7 days). The method, then: Maleate and hydrochloride according to Example E8 are stored firstly at 25° C. and 75% and 95% relative atmospheric humidity for 7 days and thereafter are dried for 7 days in the drying cabinet at 50° C. under a vacuum. Before storage begins, X-ray diffraction patterns (XRD) are recorded, DSC performed to determine transition points (Tp), dry weight (DW) and the Karl-Fischer water content (WC) are determined and the same values again after damp storage and drying. The X-ray diffraction patterns show no change in crystalline forms A and D after damp storage and drying. The initial vales for the hydrochloride are Tp=116.27° C., DW=6.35% and WC 8.00%. The initial values for the maleate are Tp=170.4° C. and 179.85° C., DW=0 and WC=0.2%. The results are given in Tables 3 (75% relative atmospheric humidity) and 4 (95% relative atmospheric humidity).

Data set [2] is described as follows: General properties stated in the description (solubility, hygroscopicity).
Data set [3] in a line: Stability under grinding conditions (trituration, ball mill). In kind it is physicochemical. The method, then: The maleate produced according to Example A1 is triturated with a pestle in a mortar for 5 minutes. […] Amorphous fractions are not observed.
Crystalline form B according to Example D1 is triturated with a pestle in a mortar for 5 minutes.
The maleate produced according to Example A1 is introduced into an agate ball mill (Retsch MM200 mixing mill with 5 mm agate ball) and ground at 20 Hz and room temperature for 180 minutes. […] Amorphous fractions are not observed.
The procedure is carried out in accordance with Example E4c) with crystalline form B according to Example D1.

Data set [4] in a line: Stability under pressure (tablet pressing). In kind it is physicochemical. The settings on record: tablet press, vacuum, 100 MPa, 60 minutes. The method, then: The maleate produced according to Example A1 is introduced into a tablet press and pressed under a vacuum at a pressure of 100 MPa for 60 minutes to form a tablet.
The procedure is carried out in accordance with Example E5a) with crystalline form B according to Example D1.

The nature of data set [5]: Storage under elevated atmospheric humidity, samples investigated by Raman spectroscopy. Type of data set: physicochemical. As to conditions: room temperature, 75% relative atmospheric humidity. An excerpt: The amorphous form according to Example B1 is stored at room temperature and 75% relative atmospheric humidity and samples are investigated after 2 days, 1, 2, 3, 4 and 8 weeks using Raman spectroscopy. […] The same mixture is still observed after 8 weeks.
The maleate produced according to Example A1 is stored at room temperature and 75% relative atmospheric humidity and samples are investigated after 3 days, 1, 2, 3, 4, 8 and 10 weeks using Raman spectroscopy.
The crystalline form B produced according to Example D1 is stored at room temperature and 75% relative atmospheric humidity and samples are investigated after 3 days, 1, 2, 3, 4 and 8 weeks using Raman spectroscopy.
FT Raman spectra are recorded using a Bruker RFS 100 FT-Raman system, which is operated with an Nd:YAG laser (wavelength 1064 nm) and a germanium detector cooled with liquid nitrogen. For each sample, 64 scans are accumulated with a resolution of 2 cm^−1. In general, a laser power of 100 mW is used.

Data set [6] is described as follows: Water absorption by Dynamic Vapour Sorption (Example E6). In kind it is physicochemical. As to conditions: 25° C.; for Crystalline form at the end of the DVS measuring cycle: maleate; for Water absorption: DVS. Here is the method:
Water absorption is determined by means of dynamic water vapour absorption (Dynamic Vapour Sorption, DVS) using apparatus DVS-1 from Surface Measurement System Ltd. The sample is placed in a platinum crucible at the tip of a microchemical balance. Then the sample is firstly equilibrated at 50% relative atmospheric humidity and then subjected to a predefined measuring program. The temperature is 25° C. The change in weight of the sample is determined.

Data set [7] can be described thus: Water absorption of maleate and hydrochloride by DVS (Example E8, comparison). In kind it is physicochemical. The settings on record: 25° C. Here is the method: Water absorption is determined by means of dynamic water vapour absorption (Dynamic Vapour Sorption, DVS) using apparatus DVS-1 from Surface Measurement System Ltd. The sample is placed in a platinum crucible at the tip of a microchemical balance. Then the sample is firstly equilibrated at 50% relative atmospheric humidity and then subjected to a predefined measuring program. The temperature is 25° C. The change in weight of the sample is determined after a stepwise increase in relative atmospheric humidity by 10% steps up to 90%.

A short description of data set [8]: Stability at elevated temperature in open and closed vessels (HPLC, FT Raman). Type of data set: physicochemical. The method, then: The crystalline forms are stored in open and closed vessels and, after a predetermined time, possible changes are measured chromatographically (HPLC) as stability parameters.
A short description of data set [9]: Storage of amorphous form at room temperature and 20% or 90% atmospheric humidity for 24 hours. Type of data set: physicochemical. As to conditions: 20 mg, room temperature.
The mark [10] stands for this setting: 75% R.H. storage, then dried 7 days at 50° C. under vacuum.
Setting [11] is: 95% R.H. storage, then dried 7 days at 50° C. under vacuum.
The mark [12] stands for this setting: after damp storage, 25° C., 75% relative atmospheric humidity, 7 days.
Where [13] appears, read: after damp storage, 25° C., 95% relative atmospheric humidity, 7 days.
Where [14] appears, read: 40° C./75% R.H., 1 week, maleate.
Where [15] appears, read: 60° C. (closed), 1 week, maleate.
Where [16] appears, read: 60° C. (closed), 4 weeks, maleate.
Where [17] appears, read: 60° C./75% R.H., 4 weeks, maleate.

Each structure is given as a SMILES string.

Turning to `CN(C)C[C@@H]1CCCC[C@H]1c1cccc(O)c1.O=C(O)/C=C\C(=O)O` [Crystalline form A, (+)-(1R,2R)-3-[2-(dimethylamino)methyl-(cyclohex-1-yl)]-phenol maleate], the figures for the Tp in data set [1] (setting [10]) and in [1] (setting [12]) were 165.33 °C and 165.41 °C, respectively. Further, the WC is listed as 0.20% in [1] (setting [10]), 0.50% in data set [1] (setting [11]), 0.20% in data set [1] (setting [12]) and 0.20% in data set [1] (setting [13]). Also, the “Change in crystalline form by X-ray diffraction pattern” value in [1] was “no change”. In data set [1] (initial value, before storage), the “DW (dry weight)” value was 0%. In [1] (initial value, before storage), the “WC (Karl-Fischer water content)” value was 0.2%. In addition, the Hygroscopicity result in [2] is given as “non-hygroscopic”. For the same compound, the “Solubility in polar solvents” value in data set [2] is “very good”. For the same compound, the “Amorphous fractions after grinding” value in [3] (agate ball mill, 20 Hz, room temperature, 180 minutes) is listed as “not observed”. For the same compound, the “Crystalline form after grinding” value in [3] (agate ball mill, 20 Hz, room temperature, 180 minutes, listed as Example A1, maleate) was “unchanged form”. Further, the “Amorphous fractions after trituration” value in [3] (pestle in a mortar, 5 minutes) is “not observed”. Also, the “Crystalline form after trituration” value in [3] (pestle in a mortar, 5 minutes, listed as Example A1, maleate) was “unchanged form”. Besides, the “Crystalline form after tablet pressing” value in data set [4] (listed as Example A1, maleate) is on record as “unchanged form”. Moreover, the “Crystalline form found by Raman spectroscopy after storage” value (from here on “Crystalline form found”) in [5] (after 10 weeks) is listed as “virtually unchanged”. Further, the “Crystalline form at the end of the DVS measuring cycle” value (shortened to “Crystalline form at the end”) in [6] was “unchanged crystalline form A”. Further, the Water absorption result in data set [6] (measuring cycle) was “approx. 0.2 wt. %”; in data set [7] (relative atmospheric humidity raised in 10% steps up to 90%), 0.06%. In data set [7] (at approx. 10% relative atmospheric humidity), the “Release of the absorbed moisture” value is “released again completely”. Besides, the HPLC in [8] (setting [14]) came to 100.2%; in [8] (setting [15]) it was 100.2%; in data set [8] (setting [16]), 100.5%; in data set [8] (setting [17]) it was 100.3%; in data set [8] (−18° C. (reference), 4 weeks), 100%. Moreover, in data set [8] (storage in open and closed vessels), the “Stability at elevated temperature (summary)” value was “very stable with regard to chemical stability and crystal shape”.

On to `CN(C)C[C@@H]1CCCC[C@H]1c1cccc(O)c1.O=C(O)/C=C\C(=O)O` [Crystalline form B, (+)-(1R,2R)-3-[2-(dimethylamino)methyl-(cyclohex-1-yl)]-phenol maleate], for which the “Solubility in polar solvents” value in data set [2] is given as “very good”. Moreover, the “Crystalline form after grinding” value in data set [3] (agate ball mill, 20 Hz, room temperature, 180 minutes, maleate) was “mixture of crystalline forms A and B”. The “Crystalline form after trituration” value in data set [3] (pestle in a mortar, 5 minutes, maleate) is “mixture of crystalline forms A and B”. The “Crystalline form after tablet pressing” value in [4] (maleate) was “mixture of crystalline forms A and B”. For the same compound, the “Crystalline form found” value in data set [5] (after 8 weeks, maleate) is “virtually unchanged”. Moreover, the “Crystalline form at the end” value in [6] is “mixture of crystalline forms A and B”. Moreover, the Water absorption result in data set [6] (measuring cycle) is “approx. 0.2 wt. %”. The “FT Raman (determination of crystalline form)” value in data set [8] (40° C./75% R.H., 1 week) is “A and B”; in data set [8] (60° C. (closed), 1 week) it was “A and B”; in data set [8] (60° C. (closed), 4 weeks), “A and B”; in data set [8] (60° C./75% R.H., 4 weeks) it was “A and B”; in data set [8] (−18° C. (reference), 4 weeks) it was “A and B”. The HPLC in data set [8] (setting [14]) was 100.3%; in [8] (setting [15]) it was 100.6%; in data set [8] (setting [16]), 100.9%; in data set [8] (setting [17]), 101.1%; in data set [8] (−18° C. (reference), 4 weeks) it was 100%.

In data set [1] (setting [10]), `CN(C)C[C@@H]1CCCC[C@H]1c1cccc(O)c1.Cl` [Hydrochloride, (+)-(1R,2R)-3-[2-(dimethylamino)methyl-(cyclohex-1-yl)]-phenol hydrochloride] showed a DW of 6.12%, a Tp of 113.83 °C and a WC of 6.00%. In data set [1] (setting [11]), the DW is 6.74, the Tp worked out at 114.47 °C and the WC worked out at 6.60%. For the same compound, in data set [1], the “Change in crystalline form by X-ray diffraction pattern” value is listed as “no change”. Further, in [1] (setting [12]), the DW was 5.92%, the Tp amounted to 116.22 °C and the WC stood at 8.50%. In [1] (setting [13]), the DW came to 7.84%, the Tp is 116.52 °C and the WC is listed as 8.50%. For the same compound, in data set [1] (initial value, before storage), the “DW (dry weight)” value was determined as 6.35%; the “Tp (transition point, DSC)” value was determined as 116.27 °C; the “WC (Karl-Fischer water content)” value was found to be 8.00%. In addition, the Hygroscopicity result in data set [2] is given as “decidedly hygroscopic”. Further, in data set [7] (further increase to 90% relative atmospheric humidity), the Water absorption altogether entry is given as “approx. 5 wt. %”. Also, in data set [7] (relative atmospheric humidity increased to approx. 75%), the Water absorption entry is “approx. 2 wt. %”. Moreover, the “Water released on desorption altogether” value in [7] (relative atmospheric humidity lowered in 10% steps) is 8.5%.

As for `CN(C)C[C@@H]1CCCC[C@H]1c1cccc(O)c1.O=C(O)/C=C\C(=O)O` [amorphous form, (+)-(1R,2R)-3-[2-(dimethylamino)methyl-(cyclohex-1-yl)]-phenol maleate], the “Form obtained after storage” value was “mixture of crystalline forms A and B” in [9] (20% atmospheric humidity); “only crystalline form A” in [9] (90% atmospheric humidity). Also, the “Crystalline form found” value was “same mixture” in [5] (after 8 weeks, maleate); “mixture of crystalline forms A and B” in [5] (after 2 days). In addition, in [6], the “Crystalline form at the end” value was “mixture of crystalline forms A and B”. In addition, in [6] (up to approx. 33% relative atmospheric humidity), the Water absorption result is “approx. 2.2 wt. %”.
